Assay results taken from patent US10167262B2, “Herbicidal substituted 3-arylpyrazoles” (FMC CORPORATION, priority 2014, dated 2019).
Where two headings read alike, the source gives them in different places.

Columns and labels:
Assay type in all cases: in vivo
[1] = test system: barnyardgrass (Echinochloa crus-galli); assay: Test A pre-/postemergence greenhouse herbicide test, visual injury rating 0-100; details: for pest or weed control at 500 g/ha: 500 g ai/ha
Method in brief: (§1)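 Seeds sown in loam soil–sand blend; preemergence directed soil spray and, simultaneously, postemergence spray on plants 2 to 10 cm tall at one- to two-leaf stage. Compounds formulated in non-phytotoxic solvent mixture with surfactant. Injury rated visually versus untreated controls after ~10 days in greenhouse.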

corn (Zea mays) = assay: as above; details: for plant injury at 500 g/ha: 500 g ai/ha
Method in brief: as §1

[2] = test system: giant foxtail (Setaria faberii); assay: as above; details: for pest or weed control at 500 g/ha: 500 g ai/ha
Method in brief: as §1

[3] = test system: large (Lg) crabgrass (Digitaria sanguinalis); assay: as above; details: for pest or weed control at 500 g/ha: 500 g ai/ha
Method in brief: as §1

[4] = test system: morningglory (Ipomoea spp.); assay: as above; details: for pest or weed control at 500 g/ha: 500 g ai/ha
Method in brief: as §1

[5] = test system: pigweed (Amaranthus retroflexus); assay: as above; details: for pest or weed control at 500 g/ha: 500 g ai/ha
Method in brief: as §1

[6] = test system: velvetleaf (Abutilon theophrasti); assay: as above; details: for pest or weed control at 500 g/ha: 500 g ai/ha
Method in brief: as §1

[7] = test system: wheat (Triticum aestivum); assay: as above; details: for plant injury at 500 g/ha: 500 g ai/ha
Method in brief: as §1

[8] = test system: Italian ryegrass (Lolium multiflorum); assay: Test C pre-/postemergence greenhouse test, plant response rating 0-100; details: Lolium multiflorum; for pest or weed control at 62 g/ha: 62 g ai/ha; for pest or weed control at 125 g/ha: 125 g ai/ha; for pest or weed control at 250 g/ha: 250 g ai/ha; for pest or weed control at 500 g/ha: 500 g ai/ha
Method in brief: (§2)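 Formulated in solvent with surfactant, test chemicals were sprayed on seeded loam/sand pots and, concurrently, on young plants 2–18 cm tall. Evaluation: visual, versus controls, day 13–15.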

[9] = test system: galium (catchweed bedstraw, Galium aparine); assay: as above; details: Galium; for pest or weed control at 62 g/ha: 62 g ai/ha; for pest or weed control at 125 g/ha: 125 g ai/ha; for pest or weed control at 250 g/ha: 250 g ai/ha; for pest or weed control at 500 g/ha: 500 g ai/ha
Method in brief: as §2

[10] = test system: large (Lg) crabgrass (Digitaria sanguinalis); assay: as above; details: Digitaria sanguinalis; for pest or weed control at 62 g/ha: 62 g ai/ha; for pest or weed control at 125 g/ha: 125 g ai/ha; for pest or weed control at 250 g/ha: 250 g ai/ha; for pest or weed control at 500 g/ha: 500 g ai/ha
Method in brief: as §2

[11] = test system: ragweed (common ragweed, Ambrosia elatior); assay: as above; details: Ambrosia artemisiifolia; for pest or weed control at 62 g/ha: 62 g ai/ha; for pest or weed control at 125 g/ha: 125 g ai/ha; for pest or weed control at 250 g/ha: 250 g ai/ha; for pest or weed control at 500 g/ha: 500 g ai/ha
Method in brief: as §2

[12] = test system: yellow nutsedge (Cyperus esculentus); assay: as above; details: Cyperus; for pest or weed control at 62 g/ha: 62 g ai/ha; for pest or weed control at 125 g/ha: 125 g ai/ha; for pest or weed control at 250 g/ha: 250 g ai/ha; for pest or weed control at 500 g/ha: 500 g ai/ha
Method in brief: as §2

[13] = post-emergence, Postemergence, read-out: Plant response rating (0 to 100), Ryegrass, Italian
[14] = post-emergence, Postemergence, scale 0 to 100
[15] = pre-emergence, Preemergence, read-out: Plant response rating, Ryegrass, Italian
[16] = post-emergence, Postemergence, read-out: Plant response rating (0 to 100), Galium
[17] = pre-emergence, Preemergence, read-out: Plant response rating, Galium
[18] = post-emergence, Postemergence, read-out: Plant response rating (0 to 100), Crabgrass, Large
[19] = pre-emergence, Preemergence, read-out: Plant response rating, Crabgrass, Large
[20] = post-emergence, Postemergence, read-out: Plant response rating (0 to 100), Ragweed
[21] = pre-emergence, Preemergence, read-out: Plant response rating, Ragweed
[22] = post-emergence, Postemergence, read-out: Plant response rating (0 to 100), Nutsedge, Yellow
[23] = pre-emergence, Preemergence, read-out: Plant response rating, Nutsedge, Yellow

SMILES: COCC(=O)n1cc(C(=O)c2ccccc2)c(-c2cc(Cl)cc(Cl)c2)n1 [Compound 16, 1-[4-benzoyl-3-(3,5-dichlorophenyl)-1H-pyrazol-1-yl]-2-methoxyethanone]
- pest or weed control at 125 g/ha ([1]; Echinochloa crus-galli, post-emergence, 240 h, Postemergence, 125 g ai/ha, read-out: Plant response rating (0 to 100 scale), Barnyardgrass): 0%
- pest or weed control at 500 g/ha ([1]; Echinochloa crus-galli, post-emergence, 240 h, Postemergence, read-out: Plant response rating (0 to 100 scale), Barnyardgrass): 0%
- pest or weed control at 500 g/ha ([1]; Echinochloa crus-galli, pre-emergence, 240 h, Preemergence, read-out: Plant response rating (0 to 100 scale), Barnyardgrass): 0%
- Barnyardgrass plant response rating (0 = no effect, 100 = complete control) ([1]; Preemergence, 125 g ai/ha): 0
- Corn plant response rating (0 = no effect, 100 = complete control) (corn (Zea mays); Preemergence, 125 g ai/ha): 0
- plant injury at 125 g/ha (corn (Zea mays); Zea mays, post-emergence, 240 h, Postemergence, 125 g ai/ha, read-out: Plant response rating (0 to 100 scale), Corn): 0%
- plant injury at 500 g/ha (corn (Zea mays); Zea mays, post-emergence, 240 h, Postemergence, read-out: Plant response rating (0 to 100 scale), Corn): 0%
- plant injury at 500 g/ha (corn (Zea mays); Zea mays, pre-emergence, 240 h, Preemergence, read-out: Plant response rating (0 to 100 scale), Corn): 0%
- Foxtail, Giant plant response rating (0 = no effect, 100 = complete control) ([2]; Preemergence, 125 g ai/ha): 0
- pest or weed control at 125 g/ha ([2]; Setaria faberi, post-emergence, 240 h, Postemergence, 125 g ai/ha, read-out: Plant response rating (0 to 100 scale), Foxtail, Giant): 0%
- pest or weed control at 500 g/ha ([2]; Setaria faberi, post-emergence, 240 h, Postemergence, read-out: Plant response rating (0 to 100 scale), Foxtail, Giant): 0%
- pest or weed control at 500 g/ha ([2]; Setaria faberi, pre-emergence, 240 h, Preemergence, read-out: Plant response rating (0 to 100 scale), Foxtail, Giant): 0%
- pest or weed control at 125 g/ha ([3]; Digitaria sanguinalis, post-emergence, 240 h, Postemergence, 125 g ai/ha, read-out: Plant response rating (0 to 100 scale), Crabgrass, Large): 0%
- pest or weed control at 500 g/ha ([3]; Digitaria sanguinalis, post-emergence, 240 h, Postemergence, read-out: Plant response rating (0 to 100 scale), Crabgrass, Large): 0%
- pest or weed control at 500 g/ha ([3]; Digitaria sanguinalis, pre-emergence, 240 h, Preemergence, read-out: Plant response rating (0 to 100 scale), Crabgrass, Large): 0%
- Crabgrass, Large plant response rating (0 = no effect, 100 = complete control) ([3]; Preemergence, 125 g ai/ha): 0
- pest or weed control at 125 g/ha ([4]; Ipomoea, post-emergence, 240 h, Postemergence, 125 g ai/ha, read-out: Plant response rating (0 to 100 scale), Morningglory): 0%
- pest or weed control at 500 g/ha ([4]; Ipomoea, post-emergence, 240 h, Postemergence, read-out: Plant response rating (0 to 100 scale), Morningglory): 0%
- pest or weed control at 500 g/ha ([4]; Ipomoea, pre-emergence, 240 h, Preemergence, read-out: Plant response rating (0 to 100 scale), Morningglory): 0%
- Morningglory plant response rating (0 = no effect, 100 = complete control) ([4]; Preemergence, 125 g ai/ha): 0
- pest or weed control at 125 g/ha ([5]; Amaranthus retroflexus, post-emergence, 240 h, Postemergence, 125 g ai/ha, read-out: Plant response rating (0 to 100 scale), Pigweed): 80%
- pest or weed control at 500 g/ha ([5]; Amaranthus retroflexus, post-emergence, 240 h, Postemergence, read-out: Plant response rating (0 to 100 scale), Pigweed): 100%
- pest or weed control at 500 g/ha ([5]; Amaranthus retroflexus, pre-emergence, 240 h, Preemergence, read-out: Plant response rating (0 to 100 scale), Pigweed): 100%
- Pigweed plant response rating (0 = no effect, 100 = complete control) ([5]; Preemergence, 125 g ai/ha): 60
- pest or weed control at 125 g/ha ([6]; Abutilon theophrasti, post-emergence, 240 h, Postemergence, 125 g ai/ha, read-out: Plant response rating (0 to 100 scale), Velvetleaf): 80%
- pest or weed control at 500 g/ha ([6]; Abutilon theophrasti, post-emergence, 240 h, Postemergence, read-out: Plant response rating (0 to 100 scale), Velvetleaf): 90%
- pest or weed control at 500 g/ha ([6]; Abutilon theophrasti, pre-emergence, 240 h, Preemergence, read-out: Plant response rating (0 to 100 scale), Velvetleaf): 80%
- Velvetleaf plant response rating (0 = no effect, 100 = complete control) ([6]; Preemergence, 125 g ai/ha): 20
- Wheat plant response rating (0 = no effect, 100 = complete control) ([7]; Preemergence, 125 g ai/ha): 0
- plant injury at 125 g/ha ([7]; Triticum aestivum, post-emergence, 240 h, Postemergence, 125 g ai/ha, read-out: Plant response rating (0 to 100 scale), Wheat): 0%
- plant injury at 500 g/ha ([7]; Triticum aestivum, post-emergence, 240 h, Postemergence, read-out: Plant response rating (0 to 100 scale), Wheat): 0%
- plant injury at 500 g/ha ([7]; Triticum aestivum, pre-emergence, 240 h, Preemergence, read-out: Plant response rating (0 to 100 scale), Wheat): 0%
- pest or weed control at 62 g/ha [8, 13]: 0%
- pest or weed control at 125 g/ha [8, 13]: 0%
- pest or weed control at 250 g/ha [8, 14]: 0%
- pest or weed control at 500 g/ha [8, 14]: 0%
- pest or weed control at 62 g/ha [8, 15]: 0%
- pest or weed control at 125 g/ha [8, 15]: 0%
- pest or weed control at 250 g/ha ([8]; pre-emergence, Preemergence): 0%
- pest or weed control at 500 g/ha ([8]; pre-emergence, Preemergence): 0%
- pest or weed control at 62 g/ha [9, 16]: 0%
- pest or weed control at 125 g/ha [9, 16]: 20%
- pest or weed control at 250 g/ha [9, 14]: 20%
- pest or weed control at 500 g/ha [9, 14]: 50%
- pest or weed control at 62 g/ha [9, 17]: 0%
- pest or weed control at 125 g/ha [9, 17]: 0%
- pest or weed control at 250 g/ha ([9]; pre-emergence, Preemergence): 0%
- pest or weed control at 500 g/ha ([9]; pre-emergence, Preemergence): 0%
- pest or weed control at 62 g/ha [10, 18]: 0%
- pest or weed control at 125 g/ha [10, 18]: 0%
- pest or weed control at 250 g/ha [10, 14]: 0%
- pest or weed control at 500 g/ha [10, 14]: 0%
- pest or weed control at 62 g/ha [10, 19]: 0%
- pest or weed control at 125 g/ha [10, 19]: 0%
- pest or weed control at 250 g/ha ([10]; pre-emergence, Preemergence): 0%
- pest or weed control at 500 g/ha ([10]; pre-emergence, Preemergence): 0%
- pest or weed control at 62 g/ha [11, 20]: 60%
- pest or weed control at 125 g/ha [11, 20]: 85%
- pest or weed control at 250 g/ha [11, 14]: 85%
- pest or weed control at 500 g/ha [11, 14]: 95%
- pest or weed control at 62 g/ha [11, 21]: 55%
- pest or weed control at 125 g/ha [11, 21]: 85%
- pest or weed control at 250 g/ha ([11]; pre-emergence, Preemergence): 85%
- pest or weed control at 500 g/ha ([11]; pre-emergence, Preemergence): 95%
- pest or weed control at 62 g/ha [12, 22]: 0%
- pest or weed control at 125 g/ha [12, 22]: 0%
- pest or weed control at 250 g/ha [12, 14]: 0%
- pest or weed control at 500 g/ha [12, 14]: 5%
- pest or weed control at 62 g/ha [12, 23]: 0%
- pest or weed control at 125 g/ha [12, 23]: 0%
- pest or weed control at 250 g/ha ([12]; pre-emergence, Preemergence): 0%
- pest or weed control at 500 g/ha ([12]; pre-emergence, Preemergence): 0%
